In patent publication US5686477A, “5-(arloxymethyl)oxazolines” (Adir et Compagnie, priority 1994, dated 1997):

Experiments:
imidazoline I1-receptors = assay: Binding to imidazoline I1-receptors, displacement of [3H]-clonidine (in vitro); conditions: [3H]-clonidine + 10 μM norepinephrine; bovine lateral reticular nucleus
Source text: (§1) EXAMPLE A: PROFILE OF BINDING TO IMIDAZOLINE I1 - AND I2 -RECEPTORS. (IN VITRO STUDY)
(§2) To measure in vitro the binding affinity of the compounds of the invention for I1 - and I2 -receptors, by determining the capacity of those compounds to displace specific radioligands of the imidazoline I1 - and I2 -receptors.
(§3) The following Table gives the radioligand used to label the receptor, the compound and the concentration selected to determine the non-specific fraction and the tissue selected.
(§4) Radioligand non specific
10 μM of cold clonidine

imidazoline I2-receptors = assay: Binding to imidazoline I2-receptors, displacement of [3H]-idazoxane (in vitro); conditions: [3H]-idazoxane + 10 μM norepinephrine; rabbit renal cortex
Source text: as §1, §2, §3, §4
10^-5 M rabbit renal cortex

dipole moment = type: physicochemical

Structure (SMILES) | Ki (imidazoline I1-receptors) | Ki (imidazoline I2-receptors) | dipole moment (dipole moment; benzene) | dipole moment (dipole moment; dioxane) | pKa (pKa) | logP (log Po/w)
Cc1ccccc1OCC1CN=C(N)O1 (racemic) [Example 1, 5-[(2-METHYLPHENOXY)METHYL]-4,5-DIHYDRO-OXAZOL-2-YLAMINE] | 0.0085 µM | 0.92 µM | 1.80 D | 2.07 D | 8.54 | 1.69
Cc1ccccc1OCC1CN=C(N)O1 (single isomer, unassigned) [Example 28, 5-[(2-METHYLPHENOXY)METHYL]-4,5-DIHYDRO-OXAZOL-2-YLAMINE] | 0.37 µM | 13 µM | – | – | – | –
Cc1ccccc1OCC1CN=C(N)O1 (single isomer, unassigned) [Example 29, 5-[(2-METHYLPHENOXY)METHYL]-4,5-DIHYDRO-OXAZOL-2-YLAMINE] | 0.0058 µM | 7.5 µM | – | – | – | –
Cc1cccc(C)c1OCC1CN=C(N)O1 (stereo not drawn) [Example 9, 5-[(2,6-DIMETHYLPHENOXY)METHYL]-4,5-DIHYDRO-OXAZOL-2-YLAMINE] | 0.057 µM | 2.1 µM | – | – | – | –
Cc1ccc(OCC2CN=C(N)O2)c(C)c1 (stereo not drawn) [Example 10, 5-[(2,4-DIMETHYLPHENOXY)METHYL]-4,5-DIHYDRO-OXAZOL-2-YLAMINE] | 0.16 µM | 3.9 µM | – | – | – | –
Cc1cccc(OCC2CN=C(N)O2)c1C (stereo not drawn) [Example 13, 5-[(2,3-DIMETHYLPHENOXY)METHYL]-4,5-DIHYDRO-OXAZOL-2-YLAMINE] | 0.064 µM | 0.45 µM | – | – | – | –
Cc1ccc(C)c(OCC2CN=C(N)O2)c1 (stereo not drawn) [Example 16, 5-[(2,5-DIMETHYLPHENOXY)METHYL]-4,5-DIHYDRO-OXAZOL-2-YLAMINE] | 0.085 µM | 1.6 µM | – | – | – | –
Cc1cc(Cl)ccc1OCC1CN=C(N)O1 (stereo not drawn) [Example 17, 5-[(4-CHLORO-2-METHYLPHENOXY)METHYL]-4,5-DIHYDRO-OXAZOL-2-YLAMINE] | 0.12 µM | 1 µM | – | – | – | –
CCc1ccccc1OCC1CN=C(N)O1 (stereo not drawn) [Example 18, 5-[(2-ETHYLPHENOXY)METHYL]-4,5-DIHYDRO-OXAZOL-2-YLAMINE] | 0.1 µM | 1.8 µM | – | – | – | –
NC1=NCC(COc2ccccc2F)O1 (stereo not drawn) [Example 20, 5-[(2-FLUOROPHENOXY)METHYL]-4,5-DIHYDRO-OXAZOL-2-YLAMINE] | 0.21 µM | 1.3 µM | – | – | – | –

Second part, led by results:

Ki (imidazoline I1-receptors) | Ki (imidazoline I2-receptors) | Structure (SMILES) | dipole moment (dipole moment; benzene) | dipole moment (dipole moment; dioxane) | pKa (pKa) | logP (log Po/w)
0.12 µM | 2.1 µM | CC(C)c1ccccc1OCC1CN=C(N)O1 (stereo not drawn) [Example 19, 5-[(2-ISOPROPYLPHENOXY)METHYL]-4,5-DIHYDRO-OXAZOL-2-YLAMINE] | – | – | – | –
0.5 µM | 3.9 µM | NC1=NCC(COc2ccccc2[N+](=O)[O-])O1 (stereo not drawn) [Example 21, 5-[(2-NITROPHENOXY)METHYL]-4,5-DIHYDRO-OXAZOL-2-YLAMINE] | – | – | – | –
0.048 µM | 2.4 µM | N#Cc1ccccc1OCC1CN=C(N)O1 (stereo not drawn) [Example 22, 5-[(2-CYANOPHENOXY)METHYL]-4,5-DIHYDRO-OXAZOL-2-YLAMINE] | – | – | – | –
0.17 µM | 7.7 µM | CC(=O)c1ccccc1OCC1CN=C(N)O1 (stereo not drawn) [Example 23, 5-[(2-ACETYLPHENOXY)METHYL]-4,5-DIHYDRO-OXAZOL-2-YLAMINE] | – | – | – | –
0.67 µM | 1.4 µM | CCCNC1=NCC(COc2ccccc2C)O1 (stereo not drawn) [Example 26, N-n-PROPYL-N-[5-(2-METHYLPHENOXY)METHYL-4,5-DIHYDRO-OXAZOL-2-YL]AMINE] | – | – | – | –
0.17 µM | 1 µM | CCNC1=NCC(COc2ccccc2C)O1 (stereo not drawn) [Example 27, N-ETHYL-N-[5-(2-METHYLPHENOXY)METHYL-4,5-DIHYDRO-OXAZOL-2-YL]AMINE] | – | – | – | –
